The Kinase Knowledgebase extract (Sharma et al. 2016)
pIC50: −log10 of the molar value.

Molecular target: PIK3CB;PIK3CG;PIK3CD;PIK3CA (human) (UniProt P48736)
Test: Inhibition of PIK3CA/PIK3CB/PIK3CD/PIK3CG Kinase Activity

Compound | pIC50
COc1ccc(CC2C[C@H]3CC[C@@H](C2)N3C)c(Nc2nc3ccccc3nc2NS(=O)(=O)c2cn(C)cn2)c1 (stereo partly specified) | 6.96
COc1ccc(CCCO)c(Nc2nc3ccccc3nc2NS(=O)(=O)c2cn(C)c(CN(C)C)n2)c1 | 7.55
COc1ccc(CC2CCCCC2)c(Nc2nc3ccccc3nc2NS(=O)(=O)c2cccnc2)c1 | 6.31
COc1ccc(CCCO)c(Nc2nc3ccccc3nc2NS(=O)(=O)c2cn(C)c(CS(C)(=O)=O)n2)c1 | 7.06
COc1ccc(CCCO)c(Nc2nc3ccccc3nc2NS(=O)(=O)c2c(C)noc2C)c1 | 6.89
CCCS(=O)(=O)Nc1nc2ccccc2nc1Nc1cc(OC)ccc1CCS(C)(=O)=O | 7.06
COc1ccc(CC2CC(C)(C)N(C)C(C)(C)C2)c(Nc2nc3ccccc3nc2NS(=O)(=O)c2cn(C)cn2)c1 | 6.38
COc1ccc(CC2CCS(=O)(=O)CC2)c(Nc2nc3ccccc3nc2NS(=O)(=O)c2cn(C)cn2)c1 | 7.52
CC#N.COc1ccc(CCCO)c(Nc2nc3ccccc3nc2NS(=O)(=O)c2cn(C)cn2)c1 | 7.68
COc1cc(Nc2nc3ccccc3nc2NS(=O)(=O)c2cccnc2)cc(C(=O)N2CCN(C)CC2)c1 | 5.48
COc1ccc(CCO)c(Nc2nc3ccccc3nc2NS(=O)(=O)CCCSC)c1 | 7.12
COc1ccc(CCO)c(Nc2nc3ccccc3nc2NS(=O)(=O)c2ccc(C#N)cc2)c1 | 7.66
COc1ccc(CCOC(=O)[C@@H](NC(=O)OCC2c3ccccc3-c3ccccc32)C(C)C)c(Nc2nc3ccccc3nc2NS(=O)(=O)c2cn(C)cn2)c1 | 5.74
COc1ccc(CCS(C)(=O)=O)c(Nc2nc3ccccc3nc2NS(=O)(=O)C(C)C)c1 | 6.80
COc1ccc(CC2CCS(=O)(=O)CC2)c(Nc2nc3ccccc3nc2NS(=O)(=O)c2ccc(CN(C)C)cc2)c1 | 8.00
COc1ccc(CC2CCC(O)CC2)c(Nc2nc3ccccc3nc2NS(=O)(=O)c2ccc(CN(C)C)cc2)c1 (stereo unspecified) | 7.59
COc1cc(Nc2nc3ccccc3nc2NS(=O)(=O)c2cn(C)cn2)cc(C(=O)N(C)C)c1 | 6.12
COc1ccc(CCCO)c(Nc2nc3ccccc3nc2NS(=O)(=O)c2cn(C)c(CO)n2)c1 | 7.08
COc1ccc(CN2CCN(C)CC2)c(Nc2nc3ccccc3nc2NS(=O)(=O)c2ccc(F)cc2)c1 | 6.96
COC(=O)c1ccc(OC)cc1Nc1nc2ccccc2nc1NS(C)(=O)=O | 5.78
COCCc1ccc(OC)cc1Nc1nc2ccccc2nc1NS(=O)(=O)C1CCNCC1 | 7.01
CCS(=O)(=O)Nc1nc2ccccc2nc1Nc1cc(OC)ccc1CCO | 7.22
COc1ccc(CCCO)c(Nc2nc3ccccc3nc2NS(=O)(=O)CCCS(C)(=O)=O)c1 | 6.92

Compound | pIC50
COc1ccc(CCCO)c(Nc2nc3ccccc3nc2NS(=O)(=O)C2CCN(C(=O)OCc3ccccc3)CC2)c1 | 6.14
COc1cc(Nc2nc3ccccc3nc2NS(=O)(=O)CCCS(C)(=O)=O)cc(C(=O)NCCO)c1 | 6.46
COc1ccc(CCO)c(Nc2nc3ccccc3nc2NS(=O)(=O)c2ccc(C(=O)N(C)C)cc2)c1 | 6.60
COc1ccc(CCO)c(Nc2nc3ccccc3nc2NS(=O)(=O)c2ccc(C)[n+]([O-])c2)c1 | 6.97
COc1cc(CN2CCN(C)CC2)cc(Nc2nc3ccccc3nc2NS(=O)(=O)c2cccnc2)c1 | 6.01
COc1ccc(CN2CCOCC2)c(Nc2nc3ccccc3nc2NS(=O)(=O)c2cccnc2)c1 | 7.14
COc1ccc(CC2CCN(C(C)=O)CC2)c(Nc2nc3ccccc3nc2NS(C)(=O)=O)c1 | 6.77
COc1ccc(CCO)c(Nc2nc3ccccc3nc2NS(=O)(=O)C2CCCCC2)c1 | 7.24
COc1ccc(CCO)c(Nc2nc3ccccc3nc2NS(=O)(=O)c2ccc(NC(=O)CO)cc2)c1 | 7.19
COc1ccc(CC2CCCCC2)c(Nc2nc3ccccc3nc2NS(=O)(=O)c2cn(C)cn2)c1 | 6.35
COc1ccc(CCCO)c(Nc2nc3ccccc3nc2NS(=O)(=O)c2cccc(NC(=O)COCc3ccccc3)c2)c1 | 6.32
COc1ccc(CCS(C)(=O)=O)c(Nc2nc3ccccc3nc2NS(=O)(=O)c2cn(C)cn2)c1 | 7.08
COc1ccc(CC2CCOCC2)c(Nc2nc3ccccc3nc2NS(C)(=O)=O)c1 | 6.89
COc1ccc(CCO)c(Nc2nc3ccccc3nc2NS(=O)(=O)c2ccc(NC(=O)CN(C)C)cc2)c1 | 7.57
COCCc1ccc(OC)cc1Nc1nc2ccccc2nc1NS(=O)(=O)c1cn(C)c(CS(C)(=O)=O)n1 | 6.70
COC(=O)c1ccc(OC)cc1Nc1nc2ccccc2nc1NS(=O)(=O)c1cccnc1 | 7.06
COc1ccc(C(=O)O)c(Nc2nc3ccccc3nc2NS(=O)(=O)c2cccnc2)c1 | 5.33
COc1cc(CN(C)C)cc(Nc2nc3ccccc3nc2NS(=O)(=O)c2cn(C)cn2)c1 | 5.96
COc1ccc(CC2CCC(O)CC2)c(Nc2nc3ccccc3nc2NS(=O)(=O)c2cn(C)cn2)c1 (stereo unspecified) | 7.74
COc1ccc(CC2CCSCC2)c(Nc2nc3ccccc3nc2NS(=O)(=O)c2ccc(CN(C)C)cc2)c1 | 7.46
COc1ccc(CC2CCOCC2)c(Nc2nc3ccccc3nc2NS(=O)(=O)c2cccnc2)c1 | 7.57
COc1ccc(CC2CCN(C(=O)CN(C)C)CC2)c(Nc2nc3ccccc3nc2NS(=O)(=O)c2cn(C)cn2)c1 | 7.00
COc1ccc(CC2CCN(C(C)=O)CC2)c(Nc2nc3ccccc3nc2NS(=O)(=O)c2cccnc2)c1 | 7.29

Compound | pIC50
COc1ccc(CCCO)c(Nc2nc3ccccc3nc2NS(=O)(=O)c2cccc(NC(=O)CN(C)C)c2)c1 | 7.52
COc1ccc(CCCO)c(Nc2nc3ccccc3nc2NS(=O)(=O)c2cccc(NC(=O)CO)c2)c1 | 7.92
COc1ccc(CC2CCC(O)CC2)c(Nc2nc3ccccc3nc2NS(=O)(=O)c2cccnc2)c1 (stereo unspecified) | 7.70
CCCCO.COCCc1ccc(OC)cc1Nc1nc2ccccc2nc1NS(=O)(=O)c1cn(C)cn1 | 7.08
COc1ccc(CCO)c(Nc2nc3ccccc3nc2NS(=O)(=O)c2c(C)noc2C)c1 | 6.54
COc1ccc(CCCN(C)C)c(Nc2nc3ccccc3nc2NS(=O)(=O)c2cn(C)cn2)c1 | 7.96
COc1ccc(CCO)c(Nc2nc3ccccc3nc2NS(C)(=O)=O)c1 | 7.02
COc1ccc(CCCS(C)(=O)=O)c(Nc2nc3ccccc3nc2NS(=O)(=O)c2cn(C)cn2)c1 | 7.30
COc1ccc(S(=O)(=O)NCCO)c(Nc2nc3ccccc3nc2NS(=O)(=O)CCCS(C)(=O)=O)c1 | 6.52
COc1ccc(CC2CCN(C)CC2)c(Nc2nc3ccccc3nc2NS(=O)(=O)c2cn(C)cn2)c1 | 7.37
COc1ccc(CCS(C)(=O)=O)c(Nc2nc3ccccc3nc2NS(=O)(=O)CCCS(C)(=O)=O)c1 | 6.46
CCCS(=O)(=O)Nc1nc2ccccc2nc1Nc1cc(OC)ccc1CCCO | 7.31
COc1cc(Nc2nc3ccccc3nc2NS(=O)(=O)c2cccnc2)cc(C(=O)N2CCOCC2)c1 | 5.51
COc1ccc(CCO)c(Nc2nc3ccccc3nc2NS(=O)(=O)c2cn(C)cn2)c1 | 7.32
COc1cc(Nc2nc3ccccc3nc2NS(=O)(=O)c2cn(C)cn2)cc(C(=O)NCCO)c1 | 7.00
COc1ccc(CN2CCN(C)CC2)c(Nc2nc3ccccc3nc2NS(=O)(=O)c2cccnc2)c1 | 7.31
COc1ccc(CCOC(=O)[C@@H](N)C(C)C)c(Nc2nc3ccccc3nc2NS(=O)(=O)c2cn(C)cn2)c1 | 7.00
COC(=O)c1ccc(OC)cc1Nc1nc2ccccc2nc1NS(=O)(=O)c1cn(C)cn1 | 7.68
COc1ccc(CO)c(Nc2nc3ccccc3nc2NS(=O)(=O)c2cn(C)cn2)c1 | 6.33
COc1ccc(CC2CCOCC2)c(Nc2nc3ccccc3nc2NS(=O)(=O)c2ccc(F)cc2)c1 | 6.82
COc1ccc(CCS(C)(=O)=O)c(Nc2nc3ccccc3nc2NS(=O)(=O)c2c(C)noc2C)c1 | 6.72
COc1ccc(CC2CCN(C(C)=O)CC2)c(Nc2nc3ccccc3nc2NS(=O)(=O)c2cn(C)cn2)c1 | 7.05
COc1ccc(CCS(C)(=O)=O)c(Nc2nc3ccccc3nc2NS(=O)(=O)c2cn(C)c(CN(C)C)n2)c1 | 7.06

Compound | pIC50
COc1cc(Nc2nc3ccccc3nc2NS(C)(=O)=O)cc(C(=O)N2CCOCC2)c1 | 5.25
COCCNC(=O)c1cc(Nc2nc3ccccc3nc2NS(=O)(=O)c2cn(C)cn2)cc(OC)c1 | 6.40
COc1ccc(CC2CCOCC2)c(Nc2nc3ccccc3nc2NS(=O)(=O)c2ccc(CN(C)C)cc2)c1 | 7.52
COc1ccc(CCO)c(Nc2nc3ccccc3nc2NS(=O)(=O)c2ccc(F)cc2)c1 | 7.64
COc1ccc(CCO)c(Nc2nc3ccccc3nc2NS(=O)(=O)C2CCS(=O)(=O)C2)c1 (stereo unspecified) | 7.07
COc1ccc(CCO)c(Nc2nc3ccccc3nc2NS(=O)(=O)c2cccnc2)c1 | 7.40
COC(=O)CCc1ccc(S(=O)(=O)Nc2nc3ccccc3nc2Nc2cc(OC)ccc2CCO)cc1 | 7.15
CCS(=O)(=O)Nc1nc2ccccc2nc1Nc1cc(OC)ccc1CCS(C)(=O)=O | 7.06
COc1ccc(CC2CCOCC2)c(Nc2nc3ccccc3nc2NS(=O)(=O)c2cn(C)cn2)c1 | 7.31
COc1ccc(CCO)c(Nc2nc3ccccc3nc2NS(=O)(=O)c2ccc(OCCO)cc2)c1 | 7.47
COc1ccc(CCO)c(Nc2nc3ccccc3nc2NS(=O)(=O)c2ccc(CCCO)cc2)c1 | 7.44
CCS(=O)(=O)Nc1nc2ccccc2nc1Nc1cc(OC)ccc1CCCO | 7.23
COc1ccc(CCCO)c(Nc2nc3ccccc3nc2NS(=O)(=O)C2CCS(=O)(=O)C2)c1 (stereo unspecified) | 6.89
COc1ccc(CCCO)c(Nc2nc3ccccc3nc2NS(C)(=O)=O)c1 | 7.19
COc1ccc(CC2CCN(C)CC2)c(Nc2nc3ccccc3nc2NS(C)(=O)=O)c1 | 6.96
COc1ccc(CCS(C)(=O)=O)c(Nc2nc3ccccc3nc2NS(C)(=O)=O)c1 | 6.70
COc1ccc(CC(O)CO)c(Nc2nc3ccccc3nc2NS(=O)(=O)c2cn(C)cn2)c1 (stereo unspecified) | 6.92
COc1ccc(CCCO)c(Nc2nc3ccccc3nc2NS(=O)(=O)C2CCNCC2)c1 | 7.59
COc1ccc(CCO)c(Nc2nc3ccccc3nc2NS(=O)(=O)CCCS(C)(=O)=O)c1 | 6.92
COc1ccc(CCS(C)(=O)=O)c(Nc2nc3ccccc3nc2NS(=O)(=O)c2ccccc2)c1 | 7.38
COc1ccc(CCO)c(Nc2nc3ccccc3nc2NS(=O)(=O)c2ccc(CN(C)C)cc2)c1 | 7.59
COc1ccc(C(C)C)c(Nc2nc3ccccc3nc2NS(=O)(=O)c2cn(C)cn2)c1 | 6.70
